Experimental data as given in patent US10945433B2, “Method for treating coffee rust, citrus black spot, citrus scab and banana black sigatoka diseases” (Bayer CropScience Aktiengesellschaft, priority 2015, dated 2021).

Experiments:
[1] = tested on: Mycosphaerella fijiensis; experiment: Control of Black Sigatoka on banana crop, field trials; format: in vivo; conditions: for Number healthy Leaves 25DAT13: Trial B, untreated 8.7; for Number healthy Leaves 25DAT13 / Number healthy Leaves 2DAT7: per banana plant at end of trial; for Number healthy Leaves 2DAT7: Trial A, untreated 8.5
Method: Two field trials were implemented in 2013 in Costa Rica and Philippines to evaluate the performance of compounds against Mycosphaerella fijiensis infection on Banana.
A typical fungicide formulation containing 100 g of compound per liter was applied every 7 to 12 days in consecutive foliar sprays. The trials were carried out according to standard experimental practice with spay adjuvant and mineral oil used in tank mix as it is usual on banana plantation in each country.
Data are expressed in Number of healthy leaves present at the end of the trial on each Banana plant (more leaves present mean better quantity and quality of harvest).

[2] = tested on: Guignardia citricarpa; experiment: Control of black spot (Guignardia citricarpa) on citrus crop, field trials; format: in vivo; conditions: 2000 to 3000 L/Ha
Source text: (§1) Five field trials were implemented in South Africa, Brazil and Japan in 2013 and 2014 to evaluate the performance of compounds against two main diseases having high effect on marketable yield: Elsinoe fawcettii and Guignardia citricarpa are hosted by many citrus species. Both are able to infest fruits and both are quarantine pathogens limiting the exportation outside of the growing countries. The protection against these two pathogens gives a clear advantage for farmers to be present on the export market.
(§2) The trials were carried out according to standard experimental practice to protect the canopy including fruits in each country. A typical fungicide formulation containing 100 g of compound per liter was applied in consecutive foliar sprays at 5 to 6 occasions every month to control black spot and at 1 to 3 occasions every 14 days to control Scab infections. Spray volumes vary from 2000 L to 3000 L/Ha.

[3] = tested on: Elsinoe fawcettii; experiment: Control of scab (Elsinoe fawcettii) on citrus crop, field trials; format: in vivo; conditions: 3000 L/Ha
Source text: as §1, §2

[4] = tested on: Hemileia vastatrix; experiment: Control of rust (Hemileia vastatrix) on coffee crop, field trials; format: in vivo; conditions: 50 g a.i./ha, coffee leaves, foliar sprays, vs untreated
Method: Four field trials were implemented in Brazil in 2013 and 2014 to evaluate the performance of compounds against Hemileia vastatrix on Coffee.
The trials were carried out according to standard experimental practice to protect the canopy from the rust, responsible to defoliation and then yield losses. A typical fungicide formulation containing 100 g of compound per liter was applied in consecutive foliar sprays at 3 occasions every 30 to 50 days in most of the trials. Spray volumes vary from 400 L to 500 L/Ha.
Assessments were realized on leaves—Data are expressed in % efficacy against rust on leaves compared to untreated plants.

[5] = log P determination by HPLC on reversed-phase column (EEC Directive 79/831 Annex V.A8); format: physicochemical
Method: In table 1, the log P values were determined in accordance with EEC Directive 79/831 Annex V.A8 by HPLC (High Performance Liquid Chromatography) on a reversed-phase column (C 18), using the method described below:
Temperature: 40° C.; Mobile phases: 0.1% aqueous formic acid and acetonitrile; linear gradient from 10% acetonitrile to 90% acetonitrile.
Calibration was carried out using unbranched alkan-2-ones (comprising 3 to 16 carbon atoms) with known log P values (determination of the log P values by the retention times using linear interpolation between two successive alkanones). lambda-max-values were determined using UV-spectra from 200 nm to 400 nm and the peak values of the chromatographic signals.

Compound: O=C(Nc1ccccc1-c1ccc(Cl)cc1)c1cccnc1Cl [Boscalid, reference compound]
- Number healthy Leaves 25DAT13 ([1]; 150 g a.i./ha): 13.1

Compound: CC(C)c1ccc(Cl)cc1CN(C(=O)c1c(C(F)F)nn(C)c1F)C1CC1 [Compound A5, N-(5-chloro-2-isopropylbenzyl)-N-cyclopropyl-3-(difluoromethyl)-5-fluoro-1-methyl-1H-pyrazole-4-carboxamide]
- % Efficacy (Abbott) ([2]; Trial A, 10 g a.i./100 L): 73%
- % Efficacy (Abbott) ([2]; Trial A, 15 g a.i./100 L): 70%
- % Efficacy (Abbott) ([2]; Trial B, 10 g a.i./100 L): 72%
- % Efficacy (Abbott) ([2]; Trial B, 15 g a.i./100 L): 83%
- % Efficacy (Abbott) ([2]; Trial C, 10 g a.i./100 L): 91.3%
- % Efficacy (Abbott) ([2]; Trial C, 15 g a.i./100 L): 93.9%
- % Efficacy (Abbott) ([3]; Trial A, 2.5 g a.i./100 L): 96%
- % Efficacy (Abbott) ([3]; Trial A, 5 g a.i./100 L): 95%
- % Efficacy (Abbott) ([3]; Trial B, 2.5 g a.i./100 L): 92%
- % Efficacy (Abbott) ([3]; Trial B, 5 g a.i./100 L): 70%
- % Efficacy (Abbott) ([4]; Trial A): 84%
- % Efficacy (Abbott) ([4]; Trial B): 61%
- % Efficacy (Abbott) ([4]; Trial C): 95%
- % Efficacy (Abbott) ([4]; Trial D): 73%
- average gain in leaves per plant ([1]; 6.25 g ai/ha, banana, Black Sigatoka): about +3 leaves per plant
- Number healthy Leaves 2DAT7 ([1]; 6.25 g a.i./ha): 11.5
- Number healthy Leaves 2DAT7 ([1]; 12.5 g a.i./ha): 12.2
- Number healthy Leaves 2DAT7 ([1]; 25 g a.i./ha): 12
- Number healthy Leaves 25DAT13 ([1]; 6.25 g a.i./ha): 13.4
- Number healthy Leaves 25DAT13 ([1]; 12.5 g a.i./ha): 14.4
- Number healthy Leaves 25DAT13 ([1]; 25 g a.i./ha): 16.2

Compound: CCc1ccc(F)cc1CN(C(=O)c1c(C(F)F)nn(C)c1F)C1CC1 [Compound A6, N-cyclopropyl-3-(difluoromethyl)-N-(2-ethyl-5-fluorobenzyl)-5-fluoro-1-methyl-1H-pyrazole-4-carboxamide]
- chromatographic logP ([5]; reversed-phase C18 HPLC column, HPLC, reversed-phase C 18, 40° C., 0.1% aqueous formic acid and acetonitrile gradient): 3.14

Compound: N-cyclopropyl-3-(difluoromethyl)-5-fluoro-N-(2-isopropylbenzyl)-1-methyl-1H-pyrazole-4-carbothio-amide [Compound A20]
- logP [5]: 4.36
